biological target: T1, IRAK4 (Homo sapiens, UniProt Q9NWZ3); experiment: THP-1 degradation assay (western blot, % IRAK4 degraded after 24 hours); format: cell-based; design: endogenous in cells; conditions: THP-1 cells
T1 sequence (Q9NWZ3 1-460): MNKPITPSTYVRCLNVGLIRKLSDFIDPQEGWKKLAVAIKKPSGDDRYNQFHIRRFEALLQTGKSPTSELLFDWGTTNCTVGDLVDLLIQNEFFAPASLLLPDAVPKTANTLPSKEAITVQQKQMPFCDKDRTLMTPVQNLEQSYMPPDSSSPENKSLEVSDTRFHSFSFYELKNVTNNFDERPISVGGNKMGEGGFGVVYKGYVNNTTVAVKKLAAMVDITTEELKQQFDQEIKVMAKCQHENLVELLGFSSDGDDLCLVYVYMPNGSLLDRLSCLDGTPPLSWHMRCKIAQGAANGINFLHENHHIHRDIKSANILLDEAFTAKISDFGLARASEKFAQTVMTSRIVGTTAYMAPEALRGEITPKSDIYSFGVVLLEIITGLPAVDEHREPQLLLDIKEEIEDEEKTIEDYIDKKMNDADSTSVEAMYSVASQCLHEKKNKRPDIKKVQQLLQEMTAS
Procedure: Compounds were reconstituted in DMSO to make stock solutions at concentration of 60 mM. THP-1 and OCI-LY10 cells were maintained in RPMI-1640 medium containing 10% FBS, 0.5 μM 2-ME or 20% FBS, 55 μM 2-ME, and 1% L-Glutamine respectively.
Cells were seeded into 6-well plates with 5e6 cells per well. 200 μL of diluted compounds were added to cells to the final concentration of 0.003-10 μM. After 4 or 24 hour-incubation at 37° C., cells were collected into 2 mL Eppendorf tubes and centrifuged at 1,000 rpm for 5 min. The cell pellets were washed with 1×DPBS once and resuspended in 60 μL lysis buffer. The cells were lysed on ice for 10 min, then centrifuged at 14,000 rpm for 10 min at 4° C. and the supernatants were collected for western blots. For THP-1 cells, the lysis buffer contained 40 mM pH 7.4 HEPES, 140 mM NaCl, 2.5 mM EDTA, 1% NP-40, 0.1% SDS, and protease inhibitor cocktail (Roche, Cat. No. 05892791001). For OCI-LY10 cells, RIPAbuffer (Thermo Fisher, 89900) with Halt Protease and Phosphatase Inhibitor Cocktail (Thermo Fisher, 78446) was applied.
The protein concentration of cell lysates was quantified with Pierce™ BCA Protein Assay Kit (Pierce, 23227). Albumin standards at different concentrations were prepared, involving 2,000 ug/mL, 1,500 ug/mL, 1,000 ug/mL, 750 ug/mL, 500 ug/mL, 250 ug/mL, 125 ug/mL, and 25 ug/mL. BCA working reagents were prepared by mixing BCA reagent A with reagent B in 50:1 ratio. 200 μL of the BCA working reagents were added to 25 μL of BCA standard or cell lysates in microplate, and mixed thoroughly on a plate shaker for 30 seconds. After incubation at 37° C. for 30 min, the absorbance of samples at 562 nm were measured with EnVision Plate Reader.
Protein lysates were prepared in NuPAGE™ LDS sample buffer and NuPAGE™ sample reducing agent, and incubated at 95° C. for 5 min. For western blots, 20-25 μg of total proteins were resolved in 4-12% Bis-Tris gels (Introgen, WG1403A) or 10% Bis-Tris Midi gels (Invitrogen, WG1202BOX) running with 1×MOPS SDS running buffer (Invitrogen, NP0001) or 1×MES SDS running buffer (Invitrogen, NP0002). The proteins were transferred to low fluorescence PVDF membranes using the Trans-Blot Turbo Transfer System. Membranes were then blocked in Odyssey blocking buffer at RT for 1 h followed by primary incubation at 4° C. overnight. The primary antibodies were IRAK1 rabbit monoclonal antibody (CST, #4504S, 1:500), IRAK3 rabbit polyclonal antibody (CST, #4369, 1:500), IRAK4 rabbit polyclonal antibody (CST, #4363S, 1:1,000), MyD88 rabbit monoclonal antibody (Abcam, Ab133739, 1:2,000), j3-actin mouse monoclonal antibody (Sigma, A5441, 10,000), and Gapdh mouse monoclonal antibody (Millipore, MAB374, 1:5,000). Membranes were washed three times with 1×TBST, and then incubated with IR Dye 800 CW Goat anti-rabbit (Licor, #926-32211) and IR Dye 700 CW Goat anti-mouse (Licor, #926-68070) secondary antibodies in 1:10,000 dilution at RT for 1 h. The western blot images were obtained using Odyssey Imaging System.
THP-1 results at 24 hours. The letter codes indicate the percentage of IRAK4 degraded after 24 hours: A (>50% degradation), B (>20-50% degradation) and C (<20% degradation)

**Q.** For `N#Cc1cnc(Nc2cc(NC3CC3)c(C(=O)NCC(F)COCCOCCOCCNc3cccc4c3C(=O)N(C3CCC(=O)NC3=O)C4=O)cn2)c(F)c1` (stereo not shown) [I-58], which “THP-1 24 h % IRAK4 Degradation” value is on record?
**A.** C (<20% degradation)

**Q.** Which “THP-1 24 h % IRAK4 Degradation” value does the source give for `COc1cc2c(cc1OCCOCCOCCOCCOCCOCC(=O)N[C@H](C(=O)N1C[C@H](O)C[C@H]1C(=O)NCc1ccc(-c3scnc3C)cc1)C(C)(C)C)ncc1c3ccc(C#N)cc3[nH]c21` [I-203] here?
**A.** B (>20-50% degradation)

**Q.** Which “THP-1 24 h % IRAK4 Degradation” value does the source give for `Cc1ncsc1-c1ccc(CNC(=O)[C@@H]2C[C@@H](O)CN2C(=O)[C@H](NC(=O)CCCCCCNC(=O)[C@H]2CC[C@H](NC(=O)c3cnc(Nc4ccc5cnccc5n4)cc3NC3CC3)CC2)C(C)(C)C)cc1` [I-10, 6-((1,6-naphthyridin-2-yl)amino)-4-(cyclopropylamino)-N-((1S,4r)-4-((7-(((S)-1-((2S,4R)-4-hydroxy-2-((4-(4-methylthiazol-5-yl)benzyl)carbamoyl)-pyrrolidin-1-yl)-3,3-dimethyl-1-oxobutan-2-yl)amino)-7-oxoheptyl)carbamoyl)cyclohexyl)-nicotinamide] here?
**A.** C (<20% degradation)

**Q.** With `Cc1ncsc1-c1ccc(CNC(=O)[C@@H]2C[C@@H](O)CN2C(=O)[C@@H](NC(=O)COCCOCCOCCOCCNC(=O)Cn2ccc3c(Nc4nc(N[C@@H]5CCCC[C@@H]5N)cc5[nH]cnc(=O)c45)cccc32)C(C)(C)C)cc1` [I-195, (2S,4R)-1-[(2S)-2-[2-[2-[2-[2-[2-[[2-[4-[[7-[[(1R,2S)-2-Aminocyclohexylamino]-4-oxo-3H-pyrido[4,3-d]pyrimidin-5-yl]amino]indol-1-yl]acetyl]amino]ethoxy]ethoxy]ethoxy]ethoxy]acetyl]amino]-3,3-dimethyl-butanoyl]-4-hydroxy-N-[[4-(4-methylthiazol-5-yl)phenyl]methyl]pyrrolidine-2-carboxamide] as the compound, how does the “THP-1 24 h % IRAK4 Degradation” value read?
**A.** C (<20% degradation)

**Q.** `COc1cc(Nc2nc(N[C@H]3CCCC[C@H]3N)n3ccnc3c2C(N)=O)cc(OCCOCCOCCOCCOCCNc2cccc3c2C(=O)N(C2CCC(=O)NC2=O)C3=O)c1` (stereo partly shown) [I-199] was tested. Which “THP-1 24 h % IRAK4 Degradation” value did it give?
**A.** C (<20% degradation)

**Q.** For `O=C(COc1cccc2c1C(=O)N(C1CCC(=O)NC1=O)C2=O)NCCOCCOCCOCCOCCOCC(F)CNC(=O)c1cnc(Nc2ccc3cnccc3n2)cc1NC1CC1` (stereo not shown) [I-97], which “THP-1 24 h % IRAK4 Degradation” value is on record?
**A.** B (>20-50% degradation)

**Q.** `O=C1CCC(N2C(=O)c3cccc(NCCOCCOCCOCC(=O)N4CCC(NC(=O)c5cnc(Nc6ccc7cnccc7n6)cc5NC5CC5)CC4)c3C2=O)C(=O)N1` (stereo not shown) [I-43, 6-((1,6-naphthyridin-2-yl)amino)-4-(cyclopropylamino)-N-(1-(2-(2-(2-(2-((2-(2,6-dioxopiperidin-3-yl)-1,3-dioxoisoindolin-4-yl)amino)ethoxy)ethoxy)ethoxy)acetyl)piperidin-4-yl)nicotinamide] was tested. Which “THP-1 24 h % IRAK4 Degradation” value did it give?
**A.** C (<20% degradation)

**Q.** Which “THP-1 24 h % IRAK4 Degradation” value does the source give for `O=C(COc1cccc2c1C(=O)N(C1CCC(=O)NC1=O)C2=O)NCCOCCOCCOCCNC(=O)[C@H]1CC[C@H](NC(=O)c2cnc(Nc3ccc4cnccc4n3)cc2NC2CC2)CC1` (stereo partly shown) [I-2] here?
**A.** C (<20% degradation)

**Q.** Which “THP-1 24 h % IRAK4 Degradation” value does the source give for `COc1cc(Nc2nc(N[C@H]3CCCC[C@H]3N)n3ccnc3c2C(N)=O)cc(OCCOCCOCCOCC(=O)N[C@H](C(=O)N2C[C@H](O)C[C@H]2C(=O)NCc2ccc(-c3scnc3C)cc2)C(C)(C)C)c1` [I-162, 5-[[(1S,2R)-2-aminocyclohexyl]amino]-7-[3-[2-[2-[2-[2-[[(1S)-1-[(2S,4R)-4-hydroxy-2-[[4-(4-methylthiazol-5-yl)phenyl]methylcarbamoyl]pyrrolidine-1-carbonyl]-2,2-dimethyl-propyl]amino]-2-oxo-ethoxy]ethoxy]ethoxy]ethoxy]-5-methoxy-anilino]imidazo[1,2-c]pyrimidine-8-carboxamide] here?
**A.** A (>50% degradation)

**Q.** Which “THP-1 24 h % IRAK4 Degradation” value does the source give for `NC(=O)c1nnc(N[C@@H]2CCCC[C@@H]2N)nc1Nc1cccc2c1ccn2CCOCCOCCOCCOCCNc1cccc2c1C(=O)N(C1CCC(=O)NC1=O)C2=O` (stereo partly drawn) [I-194, 3-[[(1R,2S)-2-aminocyclohexyl]amino]-5-[[1-[2-[2-[2-[2-[2-[[2-(2,6-dioxo-3-piperidyl)-1,3-dioxo-isoindolin-4-yl]amino]ethoxy]ethoxy]ethoxy]ethoxy]ethyl]indol-4-yl]amino]-1,2,4-triazine-6-carboxamide] here?
**A.** C (<20% degradation)

**Q.** Which “THP-1 24 h % IRAK4 Degradation” value does the source give for `O=C(COc1cccc2c1C(=O)N(C1CCC(=O)NC1=O)C2=O)NCCCNC(=O)[C@H]1CC[C@H](NC(=O)c2cnc(Nc3ccc4cnccc4n3)cc2NC2CC2)CC1` (stereo partly shown) [I-7] here?
**A.** B (>20-50% degradation)

**Q.** For `Cc1ncsc1-c1ccc(CNC(=O)[C@@H]2C[C@@H](O)CN2C(=O)[C@@H](NC(=O)COCCOCCOCC(F)CNC(=O)c2cnc(Nc3ccc4cnccc4n3)cc2NC2CC2)C(C)(C)C)cc1` (stereo partly shown) [I-120], which “THP-1 24 h % IRAK4 Degradation” value is on record?
**A.** C (<20% degradation)

**Q.** With `Cc1ncsc1-c1ccc(CNC(=O)[C@@H]2C[C@@H](O)CN2C(=O)[C@H](NC(=O)CCCCCCCCCCCNC(=O)[C@H]2CC[C@H](NC(=O)c3cnc(Nc4ccc5cnccc5n4)cc3NC3CC3)CC2)C(C)(C)C)cc1` [I-12] as the compound, how does the “THP-1 24 h % IRAK4 Degradation” value read?
**A.** C (<20% degradation)

**Q.** `Cc1ncsc1-c1ccc(CNC(=O)[C@@H]2C[C@@H](O)CN2C(=O)[C@@H](NC(=O)COCCOCCn2ccc3c(Nc4nc(N[C@@H]5CCCC[C@@H]5N)cc5[nH]cnc(=O)c45)cccc32)C(C)(C)C)cc1` [I-189, (2S,4R)-1-[(2S)-2-[[2-[2-[2-[4-[[7-[[(1R,2S)-2-aminocyclohexyl]amino]-4-oxo-3H-pyrido[4,3-d]pyrimidin-5-yl]amino]indol-1-yl]ethoxy]ethoxy]acetyl]amino]-3,3-dimethyl-butanoyl]-4-hydroxy-N-[[4-(4-methylthiazol-5-yl)phenyl]methyl]pyrrolidine-2-carboxamide] was tested. Which “THP-1 24 h % IRAK4 Degradation” value did it give?
**A.** C (<20% degradation)

**Q.** For `Cc1ncsc1-c1ccc(CNC(=O)C2C[C@@H](O)CN2C(=O)[C@@H](NC(=O)COCCOCCOC(C)C(F)CNC(=O)c2cnc(-n3ncc4cc(C#N)cnc43)cc2NC2CC2)C(C)(C)C)cc1` (stereo partly shown) [I-122], which “THP-1 24 h % IRAK4 Degradation” value is on record?
**A.** C (<20% degradation)

**Q.** With `O=C1CCC(N2C(=O)c3cccc(NCCOCCOCCOCCOCCOCCOCC(F)CNC(=O)c4cnc(Nc5ccc6cnccc6n5)cc4NC4CC4)c3C2=O)C(=O)N1` (stereo not shown) [I-51] as the compound, how does the “THP-1 24 h % IRAK4 Degradation” value read?
**A.** C (<20% degradation)

**Q.** For `O=C(COc1cccc2c1C(=O)N(C1CCC(=O)NC1=O)C2=O)NCCCCCOCCOCCOCCCCCNC(=O)[C@H]1CC[C@H](NC(=O)c2cnc(Nc3ccc4cnccc4n3)cc2NC2CC2)CC1` (stereo partly drawn) [I-1, 6-((1,6-naphthyridin-2-yl)amino)-4-(cyclopropylamino)-N-((1R,4R)-4-((1-((2-(2,6-dioxopiperidin-3-yl)-1,3-dioxoisoindolin-4-yl)oxy)-2-oxo-9,12,15-trioxa-3-azaicosan-20-yl)carbamoyl)cyclohexyl)nicotinamide], which “THP-1 24 h % IRAK4 Degradation” value is on record?
**A.** B (>20-50% degradation)

**Q.** For `O=C(COc1cccc2c1C(=O)N(C1CCC(=O)NC1=O)C2=O)NCCOCCOCCNC(=O)[C@H]1C[C@H](NC(=O)c2cnc(Nc3ccc4cnccc4n3)cc2NC2CC2)C1` (stereo partly shown) [I-16], which “THP-1 24 h % IRAK4 Degradation” value is on record?
**A.** C (<20% degradation)

**Q.** `O=C(COc1cccc2c1C(=O)N(C1CCC(=O)NC1=O)C2=O)NCCCCCOCCOCCCCCNC(=O)[C@H]1CC[C@H](NC(=O)c2cnc(Nc3ccc4cnccc4n3)cc2NC2CC2)CC1` (stereo partly shown) [I-5] was tested. Which “THP-1 24 h % IRAK4 Degradation” value did it give?
**A.** B (>20-50% degradation)

Reference: patent US10874743B2, “IRAK degraders and uses thereof” (Kymera Therapeutics, Inc., priority 2017, dated 2020)
